Test results reported in PubChem BioAssay (NCI).
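Cultured in 96-well plates, cells were exposed to test compound for 48 hours across five concentrations. Definition used: TGI = concentration required for complete inhibition of growth.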

Columns and labels:
Assay in all cases: NCI anticancer screen, dose series, 48 h
[1] = system: A498 renal
[2] = system: COLO 205 colon
[3] = system: HCT-116 colon
[4] = system: K-562 leukemia
[5] = system: KM12 colon
[6] = system: MCF7 breast
[7] = system: MDA-MB-231 breast
[8] = system: MDA-N
[9] = system: NCI-H522 lung
[10] = system: OVCAR-4 ovarian
[11] = system: OVCAR-8 ovarian
[12] = system: RPMI-8226 leukemia
[13] = system: RXF 393 renal
[14] = system: SF-268 CNS
[15] = system: SF-539 CNS
[16] = system: SK-MEL-28 melanoma
[17] = system: SK-OV-3 ovarian
[18] = system: SN12C renal
[19] = system: SNB-19 CNS
[20] = system: UACC-257 melanoma

Structure (SMILES)	TGI [1]	TGI [2]	TGI [3]	TGI [4]	TGI [5]	TGI [6]	TGI [7]	TGI [8]	TGI [9]	TGI [10]	TGI [11]	TGI [12]	TGI [13]	TGI [14]	TGI [15]	TGI [16]	TGI [17]	TGI [18]	TGI [19]	TGI [20]
N#CCCN(CCC#N)c1ccc(C(N=Nc2ccc(Cl)cc2)=Nc2ccccc2)cc1	34.5 µM	12.4 µM	24.4 µM	> 100 µM	31.3 µM	28.2 µM	33.8 µM	22.8 µM	30.4 µM	26 µM	28.7 µM	> 100 µM	30.8 µM	27.1 µM	29.1 µM	30 µM	27.1 µM	33.5 µM	25 µM	20.8 µM
CCCN(CCC)C(=S)N/N=C(/C)c1ccccc1O	36.3 µM	21.8 µM	18.4 µM	> 100 µM	> 100 µM	> 43.6 µM	52.8 µM	> 100 µM	25.5 µM	32.3 µM	33 µM	> 57.7 µM	> 87.1 µM	> 35.6 µM	19.4 µM	> 100 µM	> 75.5 µM	26 µM	> 100 µM	27.6 µM
CN(C)CCNCc1ccc2c(-c3ccccc3)nc3cc(Cl)c(Cl)cc3n12	29.9 µM	14.1 µM	16.3 µM	31.9 µM	24.7 µM	19.1 µM	25.2 µM	23.4 µM	27.8 µM	26.7 µM	27.7 µM	36.8 µM	10 µM	29.7 µM	14.4 µM	14.1 µM	17.4 µM	24.2 µM	28.9 µM	19.9 µM
CC(C)(C)OC(=O)N1CC(CCl)c2ccc(O)cc21 (stereo not given)	4.82 µM	4.53 µM	12.1 µM	14.2 µM	4.6 µM	5.02 µM	11.4 µM	3.67 µM	2.01 µM	1.39 µM	11.7 µM	7.96 µM	2.85 µM	4.26 µM	4.96 µM	4.17 µM	11.8 µM	11.5 µM	10.6 µM	5.01 µM
CNC(=O)N(CCC#N)CCN(C(=O)N(C)C)c1ccccc1	> 100 µM	> 100 µM	> 100 µM	> 100 µM	> 100 µM	> 100 µM	> 100 µM	> 100 µM	> 100 µM	> 100 µM	> 100 µM	> 100 µM	> 100 µM	> 100 µM	> 100 µM	> 100 µM	> 100 µM	> 100 µM	> 100 µM	> 100 µM
COc1cccc2c1C1(O)C2CCCCCCCCCC12OCCCO2 (stereo not given)	> 100 µM	> 100 µM	> 100 µM	> 100 µM	> 100 µM	> 100 µM	> 100 µM	> 100 µM	> 96.5 µM	> 100 µM	> 100 µM	> 80.1 µM	> 100 µM	> 100 µM	> 100 µM	> 100 µM	> 100 µM	> 100 µM	> 100 µM	> 100 µM
